# Measurements taken from ChEMBL document CHEMBL1147287, “Antitumor agents, 107. New cytotoxic 4-alkylamino analogues of 4'-demethyl-epipodophyllotoxin as inhibitors of human DNA topoisomerase II” (1989).
# Active and inactive are the calls of the source. The calls are words filed in the database; no cut-off is given here.
# Tests used:
# [1] = molecular target: DNA topoisomerase 2-alpha (Homo sapiens) (UniProt P11388); test: Inhibition of DNA topoisomerase 2 in human KB cells assessed as enzyme-[methyl-3H]thymidine-labeled DNA complex formation at 10 uM after 1 hr by K-SDS precipitation assay; format: cell-based
# Chain of DNA topoisomerase 2-alpha (Homo sapiens) (P11388 whole entry): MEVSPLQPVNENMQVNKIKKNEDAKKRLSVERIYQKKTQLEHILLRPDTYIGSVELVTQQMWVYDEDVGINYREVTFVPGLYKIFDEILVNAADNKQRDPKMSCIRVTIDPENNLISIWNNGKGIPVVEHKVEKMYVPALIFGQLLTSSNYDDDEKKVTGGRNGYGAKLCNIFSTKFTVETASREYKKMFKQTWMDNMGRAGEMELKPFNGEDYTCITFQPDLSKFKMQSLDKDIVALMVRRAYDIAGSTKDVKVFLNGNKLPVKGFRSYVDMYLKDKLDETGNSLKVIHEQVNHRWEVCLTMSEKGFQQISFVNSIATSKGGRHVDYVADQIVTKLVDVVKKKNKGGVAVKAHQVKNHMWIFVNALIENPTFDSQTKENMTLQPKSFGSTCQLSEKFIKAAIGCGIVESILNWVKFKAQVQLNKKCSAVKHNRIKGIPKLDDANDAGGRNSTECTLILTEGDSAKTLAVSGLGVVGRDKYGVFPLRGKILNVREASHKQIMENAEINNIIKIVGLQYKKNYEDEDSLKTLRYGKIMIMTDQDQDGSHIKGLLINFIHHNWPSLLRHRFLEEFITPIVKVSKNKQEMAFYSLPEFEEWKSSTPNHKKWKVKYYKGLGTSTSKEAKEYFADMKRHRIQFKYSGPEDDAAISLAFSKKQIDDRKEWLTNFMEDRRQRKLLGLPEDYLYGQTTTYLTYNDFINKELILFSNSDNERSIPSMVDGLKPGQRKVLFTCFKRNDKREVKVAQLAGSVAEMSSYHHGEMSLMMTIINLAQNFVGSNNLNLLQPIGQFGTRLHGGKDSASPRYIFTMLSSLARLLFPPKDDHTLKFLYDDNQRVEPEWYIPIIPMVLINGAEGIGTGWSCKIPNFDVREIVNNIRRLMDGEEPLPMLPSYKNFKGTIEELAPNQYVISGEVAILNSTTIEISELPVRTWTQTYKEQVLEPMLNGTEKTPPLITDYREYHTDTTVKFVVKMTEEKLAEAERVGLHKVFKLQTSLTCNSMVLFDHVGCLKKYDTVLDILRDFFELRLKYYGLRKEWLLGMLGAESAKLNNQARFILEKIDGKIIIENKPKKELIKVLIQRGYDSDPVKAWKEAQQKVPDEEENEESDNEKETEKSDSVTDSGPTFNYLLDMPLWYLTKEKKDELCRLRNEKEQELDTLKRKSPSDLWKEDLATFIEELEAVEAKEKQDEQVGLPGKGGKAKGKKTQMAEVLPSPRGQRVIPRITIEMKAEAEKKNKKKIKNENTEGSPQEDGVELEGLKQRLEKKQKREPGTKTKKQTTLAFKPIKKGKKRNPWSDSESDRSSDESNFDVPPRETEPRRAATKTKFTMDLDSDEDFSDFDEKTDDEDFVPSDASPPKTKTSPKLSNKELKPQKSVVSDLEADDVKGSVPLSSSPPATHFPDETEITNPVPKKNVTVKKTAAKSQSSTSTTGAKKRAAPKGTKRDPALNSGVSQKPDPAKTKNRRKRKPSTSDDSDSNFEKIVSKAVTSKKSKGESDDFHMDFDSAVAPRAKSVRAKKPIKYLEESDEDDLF
# [2] = test system: KB; test: Cytotoxicity against human KB cells assessed as reduction in cell number after 3 days by crystal violet staining; format: functional; conditions: 72 h, read-out: ED50 (the source's name)
# [3] = molecular target: DNA topoisomerase 2-alpha (Homo sapiens) (UniProt P11388); test: Inhibition of human DNA topoisomerase 2 assessed as bacteriophage P4 DNA unknotting at 100 uM after 30 mins by agarose gel electrophoresis
# [4] = molecular target: DNA topoisomerase 2-alpha (Homo sapiens) (UniProt P11388); test: Inhibition of DNA topoisomerase 2 in human KB cells assessed as enzyme-[methyl-3H]thymidine-labeled DNA complex formation at 5 uM after 1 hr by K-SDS precipitation assay; format: cell-based
# [5] = molecular target: DNA topoisomerase 2-alpha (Homo sapiens) (UniProt P11388); test: Inhibition of human DNA topoisomerase 2 assessed as bacteriophage P4 DNA unknotting after 30 mins by agarose gel electrophoresis
# [6] = Inhibition of microtubule polymerization
SMILES,inhibition [1],EC50 [2],inhibition [3],inhibition [4],ID50 [5],Activity [6]
COCCN[C@@H]1c2cc3c(cc2[C@@H](c2cc(OC)c(O)c(OC)c2)[C@H]2C(=O)OC[C@@H]21)OCO3,111%,> 4 µg/mL,75%,–,–,–
CCCN[C@@H]1c2cc3c(cc2[C@@H](c2cc(OC)c(O)c(OC)c2)[C@H]2C(=O)OC[C@@H]21)OCO3,69.7%,< 0.4 µg/mL,50%,–,–,–
COc1cc([C@@H]2c3cc4c(cc3[C@@H](NC(C)CO)[C@H]3COC(=O)[C@H]23)OCO4)cc(OC)c1O (stereo not given in full),–,2.3 µg/mL,> 75%,89.3%,25 µM,–
COc1cc([C@@H]2c3cc4c(cc3[C@H](O)[C@H]3COC(=O)[C@H]23)OCO4)cc(OC)c1O,3.3%,0.045 µg/mL,25%,–,–,–
COc1cc([C@@H]2c3cc4c(cc3[C@H](O)[C@H]3COC(=O)[C@H]23)OCO4)cc(OC)c1OC,–,–,–,–,–,inactive
COc1cc([C@@H]2c3cc4c(cc3[C@H](NCCO)[C@H]3COC(=O)[C@H]23)OCO4)cc(OC)c1O,0%,> 1 µg/mL,–,–,–,–
COc1cc([C@@H]2c3cc4c(cc3[C@@H](O)[C@H]3COC(=O)[C@H]23)OCO4)cc(OC)c1O [4'-DEMETHYLEPIPODOPHYLLOTOXIN],42.2%,0.34 µg/mL,50%,–,–,–
COc1cc([C@@H]2c3cc4c(cc3[C@@H](O[C@@H]3O[C@@H]5CO[C@@H](C)O[C@H]5[C@H](O)[C@H]3O)[C@H]3COC(=O)[C@H]23)OCO4)cc(OC)c1O [ETOPOSIDE],100%,0.16 µg/mL,> 75%,56.2%,50 µM,–
COc1cc([C@@H]2c3cc4c(cc3[C@@H](NCCO)[C@H]3COC(=O)[C@H]23)OCO4)cc(OC)c1O,121%,1.6 µg/mL,> 75%,70.1%,50 µM,–
COc1cc([C@@H]2c3cc4c(cc3[C@H](N)[C@H]3COC(=O)[C@H]23)OCO4)cc(OC)c1O,8%,0.25 µg/mL,25%,–,–,–
COc1cc([C@@H]2c3cc4c(cc3[C@@H](N)[C@H]3COC(=O)[C@H]23)OCO4)cc(OC)c1O,36.4%,0.19 µg/mL,50%,–,–,–
COc1cc([C@@H]2c3cc4c(cc3[C@@H](NCCCO)[C@H]3COC(=O)[C@H]23)OCO4)cc(OC)c1O,89.2%,4 µg/mL,50%,–,–,–
C=CCN[C@@H]1c2cc3c(cc2[C@@H](c2cc(OC)c(O)c(OC)c2)[C@H]2C(=O)OC[C@@H]21)OCO3,84.2%,3.4 µg/mL,75%,–,–,–
COc1cc([C@@H]2c3cc4c(cc3[C@@H](NCC(C)O)[C@H]3COC(=O)[C@H]23)OCO4)cc(OC)c1O (stereo not given in full),–,3.6 µg/mL,> 75%,83.9%,25 µM,–
